Results from ChEMBL document CHEMBL3045631, “Anticandidiasis agents from a Tanzanian plant, Combretum zeyheri” (2013).
≈ marks a conversion by molar mass, not a printed value.

How the values were obtained:
Format in all cases: functional
Candida albicans [1] = experiment: Antifungal activity against Candida albicans ATCC 90028 by two-fold serial microdilution method
Candida albicans [2] = experiment: Antifungal activity against Candida albicans MTCC 1637 by two-fold serial microdilution method
Candida albicans [3] = experiment: Antifungal activity against Candida albicans clinical isolate by two-fold serial microdilution method

SMILES	MIC (Candida albicans [1]) [µg/mL]	MIC (Candida albicans [2]) [µg/mL]	MIC (Candida albicans [3]) [µg/mL]
CC1(C)CC[C@]2(C(=O)O)CC[C@]3(C)C(=CC[C@@H]4[C@@]5(C)C[C@@H](O)[C@H](O)[C@@](C)(CO)[C@@H]5[C@H](O)C[C@]43C)[C@@H]2C1 [TERMINOLIC ACID]	62.5 (≈ 124 µM)	125 (≈ 248 µM)	125 (≈ 248 µM)
CC1(C)CC[C@]2(C(=O)O)CC[C@]3(C)C(=CC[C@@H]4[C@@]5(C)C[C@@H](O)[C@H](O)C(C)(C)[C@@H]5[C@H](O)C[C@]43C)[C@@H]2C1 [6-beta-hydroxymaslinic acid]	> 250	> 250	> 250
C[C@@H]1[C@H](O)[C@@H](C)/C=C/C=C/C=C/C=C/C=C/C=C/C=C/[C@H](O[C@@H]2O[C@H](C)[C@@H](O)[C@H](N)[C@@H]2O)C[C@@H]2O[C@](O)(C[C@@H](O)C[C@@H](O)[C@H](O)CC[C@@H](O)C[C@@H](O)CC(=O)O[C@H]1C)C[C@H](O)[C@H]2C(=O)O [AMPHOTERICIN B]	3.13 (≈ 3.39 µM)	3.13 (≈ 3.39 µM)	6.25 (≈ 6.76 µM)
Clc1ccccc1C(c1ccccc1)(c1ccccc1)n1ccnc1 [CLOTRIMAZOLE]	0.78 (≈ 2.26 µM)	0.39 (≈ 1.13 µM)	0.39 (≈ 1.13 µM)
